Patent publication US20150051232A1, “USE OF (RS)-S-CYCLOPROPYL-S-(4--5-(TRIFLUOROMETHYL)PYRIMIDIN-2-YL]AMINO}PHENYL)SULFOXIMIDE FOR TREATING SPECIFIC TUMOURS” (Bayer Intellectual Property GmbH, priority 2012, published 2015)

Experiments:
Assay type in all cases: in vivo, humans
[1] = tested on: mesotheliomas; test: Clinical trial in patients with mesotheliomas; settings: 3 days of treatment and 4 days of non-treatment; for duration of treatment (until disease progression) / tumour response according to RECIST 1.1: oral solution
Description: Patient 1010, epithelioid mesothelioma, progressive disease on study enrollment, systemic pre-therapies with Alimta and cisplatin, gemcitabine, doxorubicin, dekabine
Patient 1016, epithelioid mesothelioma, stage IV, progressive disease on study enrollment, systemic pre-therapies with Alimta and cisplatin, Alimta and carboplatin, Alimta and carboplatin and Avastin, Avastin, Alimta, gemcitabine
Patient 1023, pleuramesothelioma, stage IV, progressive disease on study enrollment, systemic pre-therapies with cisplatin and Alimta
Patient 1024, pleuramesothelioma, stage IV, progressive disease on study enrollment, systemic pre-therapies with cisplatin and Alimta and Avastin, Avastin, carboplatin and Alimta and doxorubicin and dekapine
Oral solution in two dose strengths, ingredients micronized BAY 1000394 (0.2 mg/ml and 4.8 mg/ml), Levomenthol (synonym: 1-menthol, flavouring), macrogol (400) (synonym: polyethylene glycol (400), solubilizer), polysorbate 20 (surfactant)
Dosage twice a day 1.2 mg (patient 1010), 4.8 mg (patient 1016) and 9.6 mg (patients 1023 and 1024), administration protocol 3 days of treatment and 4 days of non-treatment, long-term treatment until disease progression

[2] = tested on: squamous cell carcinoma of the oesophagus; test: Clinical trial in a patient with squamous cell carcinomas of the oesophagus; settings: 28 days of treatment and 14 days of non-treatment
Experimental: Patient 3002, squamous cell carcinoma of the oesophagus stage IV, progressive disease on study enrollment, systemic pre-therapy with cisplatin and Xeloda
Oral solution, ingredients micronized BAY 1000394 (0.2 mg/ml), levomenthol (synonym: 1-menthol, flavouring) macrogol (400) (synonym: polyethylene glycol (400), solubilizer), polysorbate 20 (surfactant)
Dosage twice a day 0.5 mg, administration protocol 28 days of treatment and 14 days of non-treatment, long-term treatment until disease progression

[3] = tested on: thyroid cancer; test: Clinical trial in patients with thyroid cancer
Experimental: Patient 2006, clinical study 14856, person, papillary thyroid cancer stage IV, progressive disease on study enrollment, systemic pre-therapies with 17-AAG, Sutent, sorafenib, erlotinib and temsirolimus
Patient 1030, clinical study 14484, person, thyroid cancer stage IV, progressive disease on study enrollment, systemic pre-therapies with Adriamycin and cisplatin/carboplatin, carboplatin and Taxol, Nexavar, Sutent
Patient 2006: oral solution, ingredients micronized BAY 1000394 (0.2 mg/ml), levomenthol (synonym: 1-menthol, flavouring) macrogol (400) (synonym: polyethylene glycol (400), solubilizer), polysorbate 20 (surfactant)
Patient 1030: tablet, ingredients BAY 1000394, micronized, 5 mg/tablet, granulated mannitol (filler), microcrystalline cellulose (filler), croscarmellose (disintegrant), magnesium stearate (additive for pressing), red lacquer (coating)
Patient 2006: dosage twice a day 0.3 mg, administration protocol 28 days of treatment and 14 days of non-treatment, long-term treatment until disease progression
Patient 1030: dosage 5 mg in the morning, 10 mg in the evening, administration protocol 3 days of treatment and 4 days of non-treatment, long-term treatment until disease progression

[4] = tested on: cholangiocellular carcinoma; test: Clinical trial in a patient with cholangiocellular carcinoma; settings: 3 days of treatment and 4 days of non-treatment
Experimental: Patient 1026, cholangiocellular carcinoma stage IV, progressive disease on study enrollment, systemic pre-therapies with cisplatin/oxaliplatin and Gemzar, 5-fluorouracil and folinic acid
tablet, ingredients BAY 1000394, micronized, 5 mg/tablet, granulated mannitol (filler), microcrystalline cellulose (filler), croscarmellose (disintegrant), magnesium stearate (additive for pressing), red lacquer (coating)
Dosage twice a day 5 mg, administration protocol 3 days of treatment and 4 days of non-treatment, long-term treatment until disease progression

[5] = patient 1010, epithelioid mesothelioma, twice a day 1.2 mg
[6] = patient 1016, epithelioid mesothelioma stage IV, twice a day 4.8 mg
[7] = patient 1023, pleuramesothelioma stage IV, twice a day 9.6 mg
[8] = patient 1024, pleuramesothelioma stage IV, twice a day 9.6 mg
[9] = patient 3002, squamous cell carcinoma of the oesophagus stage IV, oral solution, twice a day 0.5 mg
[10] = patient 1030, thyroid cancer stage IV, tablet, 5 mg in the morning, 10 mg in the evening, 3 days of treatment and 4 days of non-treatment
[11] = patient 2006, papillary thyroid cancer stage IV, oral solution, twice a day 0.3 mg, 28 days of treatment and 14 days of non-treatment
[12] = patient 1026, cholangiocellular carcinoma stage IV, tablet, twice a day 5 mg

C[C@@H](O)[C@@H](C)Oc1nc(Nc2ccc(S(=N)(=O)C3CC3)cc2)ncc1C(F)(F)F (mixture of isomers) [Compound A, (RS)—S-cyclopropyl-S-(4-{[4-{[(1R,2R)-2-hydroxy-1-methylpropyl]oxy}-5-(trifluoromethyl)pyrimidin-2-yl]amino}phenyl)sulphoximide]
treatment outcome in mesothelioma patients ([1]; daily dose of 2.4 mg, 9.6 mg and 19.2 mg divided into two identical dosage units): Disease stabilization | treatment outcome in a patient suffering from squamous cell carcinoma of the oesophagus ([2]; daily dose of 1 mg divided into two identical dosage units): Disease stabilization | treatment outcome in thyroid cancer patients ([3]; daily dose of 0.6 mg divided into two identical dosage units, 28 days of treatment and 14 days of non-treatment): Disease stabilization | treatment outcome in thyroid cancer patients ([3]; daily dose of 15 mg (5 mg in the morning, 10 mg in the evening), 3 days of treatment and 4 days of non-treatment): Disease stabilization | treatment outcome in a patient suffering from cholangiocellular carcinoma ([4]; daily dose of 10 mg divided into two identical dosage units): Disease stabilization

C[C@@H](O)[C@@H](C)Oc1nc(Nc2ccc([S@](=N)(=O)C3CC3)cc2)ncc1C(F)(F)F [BAY 1000394, (R)—S-cyclopropyl-S-(4-{[4-{[(1R,2R)-2-hydroxy-1-methylpropyl]oxy}-5-(trifluoromethyl)pyrimidin-2-yl]amino}phenyl)sulphoximide]
duration of treatment (until disease progression) [1, 5]: about 4 months | tumour response according to RECIST 1.1 [1, 5]: disease stabilization | duration of treatment (until disease progression) [1, 6]: more than 3 months | tumour response according to RECIST 1.1 [1, 6]: disease stabilization | duration of treatment (until disease progression) [1, 7]: about 2 months | tumour response according to RECIST 1.1 [1, 7]: disease stabilization | duration of treatment (until disease progression) [1, 8]: about 2 months | tumour response according to RECIST 1.1 [1, 8]: disease stabilization | duration of treatment (until disease progression) [2, 9]: more than 2 months | tumour response according to RECIST 1.1 [2, 9]: disease stabilization | duration of treatment (until disease progression) [3, 10]: more than 3 months | tumour response according to RECIST 1.1 [3, 10]: disease stabilization | duration of treatment (until disease progression) [3, 11]: about 2 months | tumour response according to RECIST 1.1 [3, 11]: disease stabilization | duration of treatment (until disease progression) [4, 12]: more than 4 months | tumour response according to RECIST 1.1 [4, 12]: disease stabilization
